Results from patent publication US7109213B2, “Aminopiperidine compounds, process for their preparation, and pharmaceutical compositions containing them” (Glaxo Group Limited, priority 2002, dated 2006).

Legend:
Assay in all cases: MIC of test compounds against various organisms
Assay type in all cases: cell-based
[1] = tested on: S. epidermidis CL7; details: Staphylococcus epidermidis, range stated for all organisms of the panel
Text: (§1) The MIC (μg/ml) of test compounds against various organisms may be determined: S. epidermidis CL7, S. aureus WCUH29, S. pneumoniae 1629, S. pyogenes CN10, H. influenzae ATCC49247, E.faecalis 2, E. faecium 8, M. catarrhalis Ravisio, E. coli 7623.

[2] = tested on: H. influenzae ATCC49247; details: Haemophilus influenzae, range stated for all organisms of the panel
Text: as §1

[3] = tested on: S. aureus WCUH29; details: Staphylococcus aureus, range stated for all organisms of the panel
Text: as §1

[4] = tested on: E. faecium 8; details: Enterococcus faecium, range stated for all organisms of the panel
Text: as §1

[5] = tested on: S. pyogenes CN10; details: Streptococcus pyogenes, range stated for all organisms of the panel
Text: as §1

[6] = tested on: E.faecalis 2; details: Enterococcus faecalis, range stated for all organisms of the panel
Text: as §1

[7] = tested on: S. pneumoniae 1629; details: Streptococcus pneumoniae, range stated for all organisms of the panel
Text: as §1

[8] = tested on: M. catarrhalis Ravisio; details: Moraxella catarrhalis, range stated for all organisms of the panel
Text: as §1

[9] = tested on: E. coli 7623; details: Escherichia coli, range stated for all organisms of the panel
Text: as §1

MIC [1]: 0.06 to 16 µg/mL
MIC [2]: 0.06 to 16 µg/mL
MIC [3]: 0.06 to 16 µg/mL
MIC [4]: 0.06 to 16 µg/mL
MIC [5]: 0.06 to 16 µg/mL
MIC [6]: 0.06 to 16 µg/mL
MIC [7]: 0.06 to 16 µg/mL
MIC [8]: 0.06 to 16 µg/mL
MIC [9]: 0.06 to 16 µg/mL
Compound: COc1ccc2nccc([C@@H](O)CN3CCC(NCc4cnc5snnc5c4)C(F)C3)c2n1 (single isomer, unassigned) [Example 3]
